In patent publication US20180244611A1, “Modulators of the Cystic Fibrosis Transmembrane Conductance Regulator Protein and Methods of Use” (AbbVie S.à.r.l., priority 2017, published 2018):

How the values were obtained:
[1] = molecular target: T1, F508delCFTR (Homo sapiens, UniProt P13569, DEL508-508); experiment: Cell Surface Expression-Horse Radish Peroxidase (CSE-HRP) assay, test compound with co-corrector; type: cell-based; conditions: with 2 μM co-corrector; for Maximum % activity (with co-corrector): maximum at any tested concentration, normalized to positive control;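 for Maximum % activity (with co-corrector): percent of 2 µM positive control corrector over DMSO; co-corrector is that same compound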
T1 construct: expressed in transfected cells; host or cells: CFBE41o- human lung-derived epithelial cells (CFBE41o-F508delCFTR-HRP), doxycycline-inducible
T1 sequence (P13569 with tags, fused parts or gaps DEL508-508): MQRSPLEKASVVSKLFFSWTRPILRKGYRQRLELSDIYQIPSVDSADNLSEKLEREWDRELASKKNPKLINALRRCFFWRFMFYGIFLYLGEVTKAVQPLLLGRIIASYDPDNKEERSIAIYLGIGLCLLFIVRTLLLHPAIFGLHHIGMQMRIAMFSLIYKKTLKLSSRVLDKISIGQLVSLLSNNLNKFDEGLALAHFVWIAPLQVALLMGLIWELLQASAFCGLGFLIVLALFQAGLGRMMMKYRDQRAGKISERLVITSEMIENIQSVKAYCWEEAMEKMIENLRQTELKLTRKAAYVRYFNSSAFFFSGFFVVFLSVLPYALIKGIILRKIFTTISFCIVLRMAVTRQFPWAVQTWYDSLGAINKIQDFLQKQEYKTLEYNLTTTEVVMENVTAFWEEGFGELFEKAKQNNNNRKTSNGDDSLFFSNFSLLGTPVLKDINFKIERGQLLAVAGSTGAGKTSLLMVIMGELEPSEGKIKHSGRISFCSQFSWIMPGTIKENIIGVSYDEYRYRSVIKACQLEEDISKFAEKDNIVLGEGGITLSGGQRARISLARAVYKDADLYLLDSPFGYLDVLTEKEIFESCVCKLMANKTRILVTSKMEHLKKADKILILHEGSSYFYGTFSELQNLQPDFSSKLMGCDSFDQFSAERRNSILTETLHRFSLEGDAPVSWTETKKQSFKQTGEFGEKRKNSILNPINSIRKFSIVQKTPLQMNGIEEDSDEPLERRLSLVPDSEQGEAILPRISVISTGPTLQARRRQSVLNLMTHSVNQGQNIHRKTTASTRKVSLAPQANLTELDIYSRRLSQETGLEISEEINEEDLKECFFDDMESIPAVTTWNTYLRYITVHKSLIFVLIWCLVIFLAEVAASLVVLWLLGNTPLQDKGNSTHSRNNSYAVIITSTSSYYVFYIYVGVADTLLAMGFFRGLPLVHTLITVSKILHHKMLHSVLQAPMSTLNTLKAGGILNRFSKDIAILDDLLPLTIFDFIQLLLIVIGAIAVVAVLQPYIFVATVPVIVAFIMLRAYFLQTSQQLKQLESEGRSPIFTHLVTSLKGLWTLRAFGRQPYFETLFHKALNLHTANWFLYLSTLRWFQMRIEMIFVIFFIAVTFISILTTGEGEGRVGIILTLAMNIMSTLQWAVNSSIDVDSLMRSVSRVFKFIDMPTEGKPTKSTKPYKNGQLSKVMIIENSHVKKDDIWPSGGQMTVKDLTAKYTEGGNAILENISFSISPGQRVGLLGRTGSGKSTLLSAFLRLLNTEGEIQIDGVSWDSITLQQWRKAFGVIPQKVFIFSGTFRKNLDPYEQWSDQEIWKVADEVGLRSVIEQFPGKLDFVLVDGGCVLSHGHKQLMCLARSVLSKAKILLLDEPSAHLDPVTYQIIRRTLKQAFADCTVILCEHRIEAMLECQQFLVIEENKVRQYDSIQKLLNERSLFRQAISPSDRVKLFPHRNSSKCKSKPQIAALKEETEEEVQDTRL
Summary of the method: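 Surface-expression read-out: luminol luminescence from an HRP tag in the fourth exofacial loop of F508delCFTR, in doxycycline-induced (0.5 μg/mL, 72 h) CFBE41o- cells. Compound plus 2 μM co-corrector added for 18-24 h at 33° C., 8-point 3-fold series up to 20 μM. EC50 from a sigmoidal fit with variable Hill slope, normalised to positive control, triplicate plates.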

[2] = molecular target: T1, F508delCFTR; experiment: Cell Surface Expression-Horse Radish Peroxidase (CSE-HRP) assay, test compound without co-corrector; type: cell-based; conditions: for Emax: maximum at any tested concentration, normalized to positive control, without co-corrector; for EC50: test compound without co-corrector;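 for Emax: percent of on-plate 2 µM positive control corrector response over DMSO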
Summary of the method: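 Compound without co-corrector was tested at eight 3-fold concentrations, top 20 μM, for 18-24 h at 33° C on doxycycline-induced (0.5 μg/mL, 72 h) CFBE41o- F508delCFTR-HRP cells. After DPBS washes, luminol luminescence gave % activity relative to on-plate positive control minus DMSO; EC50 came from triplicate-plate sigmoidal fitting.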

| Maximum % activity (with co-corrector) [1] | EC50 [1] | Emax [2] | EC50 [2] | Compound |
| --- | --- | --- | --- | --- |
| +++ (≥350) | < 3 µM | ≥ 150% | 3 to 10 µM | COc1ccc(C)c2c1CC[C@@H]2C(=O)NS(=O)(=O)c1cccc2ccccc12 [Example I-109, (1S)-4-methoxy-7-methyl-N-(naphthalene-1-sulfonyl)-2,3-dihydro-1H-indene-1-carboxamide] |
| +++ (≥350) | 3 to 10 µM | ≥ 150% | 3 to 10 µM | COc1ncc(Br)c2c1C(C(=O)NS(=O)(=O)c1cccc3ccccc13)CC2 (stereo not drawn) [Example I-110, 4-bromo-1-methoxy-N-(naphthalene-1-sulfonyl)-6,7-dihydro-5H-cyclopenta[c]pyridine-7-carboxamide] |
| +++ (≥350) | 3 to 10 µM | ≥ 150% | 3 to 10 µM | COc1ncc(Cl)c2c1C(C(=O)NS(=O)(=O)c1cccc3ccccc13)CC2 (stereo not drawn) [Example I-112, 4-chloro-1-methoxy-N-(naphthalene-1-sulfonyl)-6,7-dihydro-5H-cyclopenta[c]pyridine-7-carboxamide] |
| +++ (≥350) | < 3 µM | ≥ 150% | 3 to 10 µM | COc1ncc(Br)c2c1C(C(=O)NS(=O)(=O)c1cccc3ccccc13)CCC2 (stereo not drawn) [Example I-113, 4-bromo-1-methoxy-N-(naphthalene-1-sulfonyl)-5,6,7,8-tetrahydroisoquinoline-8-carboxamide] |
| +++ (≥350) | < 3 µM | ≥ 150% | < 3 µM | COc1ccc(C2CCC2)c2c1C(C(=O)NS(=O)(=O)c1cccc3ncccc13)C2 (stereo not drawn) [Example I-114, 2-cyclobutyl-5-methoxy-N-(quinoline-5-sulfonyl)bicyclo[4.2.0]octa-1,3,5-triene-7-carboxamide] |
| +++ (≥350) | < 3 µM | ≥ 150% | 3 to 10 µM | COc1ncc(Br)c2c1[C@@H](C(=O)NS(=O)(=O)c1cccc3ccccc13)CCC2 [Example I-115, (8S)-4-bromo-1-methoxy-N-(naphthalene-1-sulfonyl)-5,6,7,8-tetrahydroisoquinoline-8-carboxamide] |
| +++ (≥350) | < 3 µM | ≥ 150% | < 3 µM | COc1ncc(Br)c2c1[C@H](C(=O)NS(=O)(=O)c1cccc3ccccc13)CCC2 [Example I-116, (8R)-4-bromo-1-methoxy-N-(naphthalene-1-sulfonyl)-5,6,7,8-tetrahydroisoquinoline-8-carboxamide] |
| +++ (≥350) | 3 to 10 µM | ≥ 150% | 3 to 10 µM | COc1ncc(C2CCC2)c2c1[C@@H](C(=O)NS(=O)(=O)c1cccc3ccccc13)CCC2 [Example I-121, (8S)-4-cyclobutyl-1-methoxy-N-(naphthalene-1-sulfonyl)-5,6,7,8-tetrahydroisoquinoline-8-carboxamide] |
| +++ (≥350) | 3 to 10 µM | ≥ 150% | 3 to 10 µM | COc1ccc(C2CCC2)c2c1[C@@H](C(=O)NS(=O)(=O)c1cccc3c1CCCN3)CC2 [Example I-122, (1S)-4-cyclobutyl-7-methoxy-N-(1,2,3,4-tetrahydroquinoline-5-sulfonyl)-2,3-dihydro-1H-indene-1-carboxamide] |
| +++ (≥350) | < 3 µM | ≥ 150% | 3 to 10 µM | COc1ccc(C2CCC2)c2c1[C@@H](C(=O)NS(=O)(=O)c1cccc3ncn(C)c13)CC2 [Example I-123, (1S)-4-cyclobutyl-7-methoxy-N-(1-methyl-1H-benzimidazole-7-sulfonyl)-2,3-dihydro-1H-indene-1-carboxamide] |
| +++ (≥350) | 3 to 10 µM | 50 to 150% | 3 to 10 µM | COc1ccc(C(C)(C)O)c2c1C(C(=O)NS(=O)(=O)c1cccc3ccccc13)CC2 (stereo not drawn) [Example I-125, 4-(2-hydroxypropan-2-yl)-7-methoxy-N-(naphthalene-1-sulfonyl)-2,3-dihydro-1H-indene-1-carboxamide] |
| +++ (≥350) | < 3 µM | ≥ 150% | 3 to 10 µM | COc1ccc(C2CCC2)c2c1[C@@H](C(=O)NS(=O)(=O)c1cccc3nc(C)ccc13)CC2 [Example I-127, (1S)-4-cyclobutyl-7-methoxy-N-(2-methylquinoline-5-sulfonyl)-2,3-dihydro-1H-indene-1-carboxamide] |
| +++ (≥350) | < 3 µM | ≥ 150% | 3 to 10 µM | COc1ccc(C2CCC2)c2c1[C@H](C(=O)NS(=O)(=O)c1cccc3nc(C)ccc13)CC2 [Example I-128, (1R)-4-cyclobutyl-7-methoxy-N-(2-methylquinoline-5-sulfonyl)-2,3-dihydro-1H-indene-1-carboxamide] |
| +++ (≥350) | < 3 µM | ≥ 150% | < 3 µM | COc1ccc(C2CCC2)c2c1[C@H](C(=O)NS(=O)(=O)c1cccc3c1CCCN3)CC2 [Example I-129, (1R)-4-cyclobutyl-7-methoxy-N-(1,2,3,4-tetrahydroquinoline-5-sulfonyl)-2,3-dihydro-1H-indene-1-carboxamide] |

Continued, compound first:

| Compound | Maximum % activity (with co-corrector) [1] | EC50 [1] | Emax [2] | EC50 [2] |
| --- | --- | --- | --- | --- |
| COc1ccc(Br)c2c1C(C(=O)NS(=O)(=O)c1cccc3c(O)cccc13)CC2 (stereo not drawn) [Example I-105, 4-bromo-N-(5-hydroxynaphthalene-1-sulfonyl)-7-methoxy-2,3-dihydro-1H-indene-1-carboxamide] | +++ (≥350) | < 3 µM | ≥ 150% | 3 to 10 µM |
| COc1ccc(C)c2c1CC[C@H]2C(=O)NS(=O)(=O)c1cccc2ccccc12 [Example I-108, (1R)-4-methoxy-7-methyl-N-(naphthalene-1-sulfonyl)-2,3-dihydro-1H-indene-1-carboxamide] | +++ (≥350) | 3 to 10 µM | ≥ 150% | 3 to 10 µM |
| COc1ncc(C2CCC2)c2c1C(C(=O)NS(=O)(=O)c1cccc3ccccc13)CC2 (stereo not drawn) [Example I-111, 4-cyclobutyl-1-methoxy-N-(naphthalene-1-sulfonyl)-6,7-dihydro-5H-cyclopenta[c]pyridine-7-carboxamide] | +++ (≥350) | 3 to 10 µM | ≥ 150% | 3 to 10 µM |
| COc1ccc(C(F)(F)F)c2c1[C@@H](C(=O)NS(=O)(=O)c1cccc3nc(C)ccc13)CC2 [Example I-117, (1S)-7-methoxy-N-(2-methylquinoline-5-sulfonyl)-4-(trifluoromethyl)-2,3-dihydro-1H-indene-1-carboxamide] | +++ (≥350) | 3 to 10 µM | ≥ 150% | 3 to 10 µM |
| COc1ccc(C(F)(F)F)c2c1[C@H](C(=O)NS(=O)(=O)c1cccc3nc(C)ccc13)CC2 [Example I-118, (1R)-7-methoxy-N-(2-methylquinoline-5-sulfonyl)-4-(trifluoromethyl)-2,3-dihydro-1H-indene-1-carboxamide] | +++ (≥350) | < 3 µM | ≥ 150% | < 3 µM |
| COc1ccc(C2CCC2)c2c1C(C(=O)NS(=O)(=O)c1cccc3c1NCCC3)CC2 (stereo not drawn) [Example I-119, 4-cyclobutyl-7-methoxy-N-(1,2,3,4-tetrahydroquinoline-8-sulfonyl)-2,3-dihydro-1H-indene-1-carboxamide] | +++ (≥350) | 3 to 10 µM | ≥ 150% | 3 to 10 µM |
| COc1ncc(C2CCC2)c2c1[C@H](C(=O)NS(=O)(=O)c1cccc3ccccc13)CCC2 [Example I-120, (8R)-4-cyclobutyl-1-methoxy-N-(naphthalene-1-sulfonyl)-5,6,7,8-tetrahydroisoquinoline-8-carboxamide] | +++ (≥350) | < 3 µM | ≥ 150% | < 3 µM |
| C=C(C)c1ccc(OC)c2c1CCC2C(=O)NS(=O)(=O)c1cccc2ccccc12 (stereo not drawn) [Example I-124, 7-methoxy-N-(naphthalene-1-sulfonyl)-4-(prop-1-en-2-yl)-2,3-dihydro-1H-indene-1-carboxamide] | +++ (≥350) | < 3 µM | ≥ 150% | < 3 µM |
| COc1ccc(C2CCC2)c2c1[C@H](C(=O)NS(=O)(=O)c1cccc3ncn(C)c13)CC2 [Example I-126, (1R)-4-cyclobutyl-7-methoxy-N-(1-methyl-1H-benzimidazole-7-sulfonyl)-2,3-dihydro-1H-indene-1-carboxamide] | +++ (≥350) | < 3 µM | ≥ 150% | < 3 µM |
| COc1ccc(C2CCC2)c2c1C(C(=O)NS(=O)(=O)c1cccc3cnn(C)c13)C2 (stereo not drawn) [Example I-132, 2-cyclobutyl-5-methoxy-N-(1-methyl-1H-indazole-7-sulfonyl)bicyclo[4.2.0]octa-1,3,5-triene-7-carboxamide] | +++ (≥350) | < 3 µM | ≥ 150% | < 3 µM |
